For 28 compounds, IC50 and Emax results are on record in article PMC4977564, “Inhibition of Mycobacterium tuberculosis dihydrodipicolinate synthase by alpha-ketopimelic acid and its other structural analogues” (Scientific Reports, 2016).

Structures are written as SMILES.

The target in the first test is recombinant Mtb-DapA (Mtb-rDapA) (Mycobacterium tuberculosis, UniProt P9WP25). Put plainly: biochemical. The following applies: IC50, pyruvate 500 μM, ASA 400 μM.
Sequence of recombinant Mtb-DapA (Mtb-rDapA) (P9WP25 whole entry, looked up): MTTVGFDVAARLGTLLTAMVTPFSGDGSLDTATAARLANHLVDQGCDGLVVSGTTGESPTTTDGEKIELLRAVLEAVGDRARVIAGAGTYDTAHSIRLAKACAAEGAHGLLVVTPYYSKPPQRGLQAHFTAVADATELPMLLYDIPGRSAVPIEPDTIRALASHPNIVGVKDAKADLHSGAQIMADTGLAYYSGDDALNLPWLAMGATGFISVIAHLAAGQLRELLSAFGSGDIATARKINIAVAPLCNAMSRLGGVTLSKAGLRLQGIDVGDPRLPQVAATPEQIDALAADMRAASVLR
Consider `O=C(O)CCCCC(O)C(=O)O` (centres unmarked) [compound 11, hydroxyheptanedioic acid], for which the IC50 stood at 31 µM.

The test is the same for the next values; noted with them: read-out: Maximal Inhibition (%).
On to `O=C(O)CCCC(=O)C(=O)O` [compound 2, 2-oxohexanedioic acid], for which the Emax is 40%. For the compound `O=C(O)CCC(=O)C(=O)O` [compound 3, 2-oxopentanedioic acid], the Emax is 15%.

`O=C(O)CCCCCC(=O)O` [compound 4, heptanedioic acid]: the Emax came out at 10%. Still for that read-out and setting: the figure for `Nc1ccc(C(=O)O)cc1` [compound 6, p-amino benzoic acid] is 8%. For the compound `O=C(O)CCCCC(O)C(=O)O` (centres unmarked) [compound 11, hydroxyheptanedioic acid], the Emax was 74%. For the compound `COC(=O)CCCC(=O)NC(N)=O` [compound 12, Methyl-oxo-ureidopentanoate], the Emax came to 65%. The same measure, in the same setting: the figure for `NC(=O)SCCCCC(=O)O` [compound 13, 5-(Carbamoylthio)pentanoic acid] is 65%; for `CN(CCCC(N)=O)C(=O)C(=O)O` [compound 14, amino-oxobutyl-methyl-amino-oxoacetic acid] it is 44%. Same read-out and setting: with `CCOC(=O)C(=O)N(C)CCCC(=O)OC` [compound 15, methyl-ethoxy-methyl-oxoacetamido-butanoate] the figure was 42%; with `NC(=O)NC(=O)CCCC(=O)O` [compound 16, oxo-ureidopentanoic acid], 40%; with `CN(CCCC(N)=O)C(=O)C(N)=O` [compound 17, amino-oxobutyl-methyloxalamide], 40%. On the same count and under the same terms, with `CN(CCCC(=O)O)C(=O)C(=O)O` [compound 18, carboxy-methylformamido-butanoic acid] the figure was 39%; with `COC(=O)CCCN1C(=O)NC(=O)C1=O` [compound 19, methyl-trioxoimidazolidin -butanoate], 38%; with `CCOC(=O)C(=O)CCCCC(=O)O` [compound 20, Ethoxy-dioxoheptanoic acid], 35%.

On to `COC(=O)CCCCC(=O)c1nn[nH]n1` [compound 21, methyl-oxo-tetrazol-hexanoate], for which the Emax is 35%. Still for that read-out and setting: the figure for `COC(=O)c1ccc(C(=O)C(N)=O)cc1` [compound 22, Methyl-amino-oxoacetyl benzoate] is 35%; for `O=C(O)c1ccc(C(O)C(=O)O)cc1` (centres unmarked) [compound 23, Carboxy-hydroxy-methyl benzoic acid] it is 35%. The same measure, in the same setting: the figure for `COC(=O)c1ccc(C(O)C(=O)O)cc1` (centres unmarked) [compound 24, Hydroxy-methoxycarbonyl pheny acetic acid] is 35%. The same measure, in the same setting: the figure for `CCOC(=O)C(=O)N(C)CCCC(N)=O` [compound 25, Ethyl-amino-oxobutyl-methyl-amino-oxoacetate] is 35%. Regarding `NC(=O)C(=O)c1ccc(C(=O)O)cc1` [compound 26, amino-oxoacetyl-benzoic acid], the Emax was found to be 34%. The same measure, in the same setting: with `CCOC(=O)CCCCSC(N)=O` [compound 27, ethyl-carbamoylthio-pentanoate] the figure was 34%. On the same count and under the same terms, the figure for `CCOC(=O)CCC[S+]([O-])CC(N)=O` (centres unmarked) [compound 28, Ethyl 4-((2-amino-2-oxoethyl)sulfinyl)butanoate] is 31%.

Turning to `COC(=O)c1ccc(C(=O)C(=O)O)cc1` [compound 29, methoxycarbonyl-phenyl-oxoacetic acid], the Emax is 29%. The same measure, in the same setting: the figure for `NC(=O)CS(=O)(=O)CCCC(=O)O` [compound 30, 4-((2-amino-2-oxoethyl)sulfonyl) butanoic acid] is 29%; for `COC(=O)CCCCC(O)C(N)=O` (centres unmarked) [compound 31, Methyl 7-amino-6-hydroxy-7-oxoheptanoate] it is 28%; for `COC(=O)CCCCC(=O)C(N)=O` [compound 32, methyl 7-amino-6,7-dioxoheptanoate] it is 24%.

Take `O=C(O)C(=O)c1ccc(C(=O)O)cc1` [compound 33, carboxycarbonyl-benzoic acid]: the Emax worked out at 22%. The same measure, in the same setting: with `CCOC(=O)CCCSCC(N)=O` [compound 34, Ethyl 4-((2-amino-2-oxoethyl)thio)butanoate] the figure was 21%.
